The nature of this data set: Stability during drying. Format: physicochemical. Conditions: temperatures up to about 40-45° C. As to the method:
In certain embodiments, Form A of the free base of Compound I is stable during drying at temperatures up to about 40-45° C. In certain embodiments, the crystallization and/or recrystallization of Form A of the free base of Compound I provides an effective means of purification by removing or reducing the levels of chemical impurities (such as, e.g., one or more of the chemical compounds provided in FIG. 14) in the resulting material. In certain embodiments, Form A of the free base of Compound I is substantially pure. […] In certain embodiments, Form A of the free base of Compound I is stable upon compression.
Crude 4-[9-(tetrahydro-furan-3-yl)-8-(2,4,6-trifluoro-phenylamino)-9H-purin-2-ylamino]-cyclohexan-1-ol (“Compound I”) (5 g) was dissolved in ethanol (35 ml, 7 vol) at reflux (78-82° C.). Water (75 ml, 15 vol) was added, maintaining the temperature above 75° C. The solution was seeded (0.5-1%) and allowed to cool to ambient temperature (20-25° C.) over 4-6 h. The product was collected by filtration and washed with water (25 ml, 5 vol) then dried (18 h, 40-45° C.) to yield Form A of the free base of Compound I as an off-white crystalline solid. Form A is the imine tautomer of 4-[9-(terahydro-furan-3-yl)-8-(2,4,6-trifluoro-phenylamino)-9H-purin-2-ylamino]-cyclonhexan-1-ol having the structure: […]

As for `O[C@H]1CC[C@H](Nc2ncc3nc(Nc4c(F)cc(F)cc4F)n([C@H]4CCOC4)c3n2)CC1` (stereo in doubt) [Form A of the Free Base of Compound I, 4-[9-(tetrahydro-furan-3-yl)-8-(2,4,6-trifluoro-phenylamino)-9H-purin-2-ylamino]-cyclohexan-1-ol], the stability during drying entry is on record as “stable”.

The values above are taken from patent US8158635B2, “Solid forms comprising 4-[9-(tetrahydro-furan-3-yl)-8-(2,4,6-trifluoro-phenylamino)-9H-purin-2-ylamino]-cyclohexan-1-ol, compositions thereof, and uses therewith” (Signal Pharmaceuticals, LLC, priority 2006, dated 2012).
